The subject of data set [1] is primary human intestinal cells. The experiment in a line: Intestinal barrier strength by transepithelial electrical resistance (TEER), primary intestinal cells in different media. Type of data set: cell-based. Particulars: after 8 days in culture, FIG. 3. The source says: It was clear that that serum free intestinal differentiation media compromised the metabolic functionality of primary liver cells, thus would not be appropriate for the co-culture of these two cell types. Therefore, the inventors investigated which components of serum free intestinal differentiation media were important for intestinal barrier function.

Data set [2] relates to primary liver cells. Briefly: CYP3A4 metabolic rate of primary liver cells co-cultured with primary intestinal cells in dual organ plate. As to conditions: co-culture with primary intestinal cells; threshold 1 pmol/min/million cell; by day 6 in culture; FIG. 4. It is filed as cell-based, human.

As for epidermal growth factor [EGF], the “TEER (intestinal barrier strength)” value in data set [1] was “critical for primary intestinal cell barrier function”. Moreover, the CYP3A4 metabolic rate entry in data set [2] was “compromises the metabolic functionality”.
`C[C@]12CCC(=O)C=C1CC[C@@H]1[C@@H]2[C@@H](O)C[C@@]2(C)[C@H]1CC[C@]2(O)C(=O)CO` [hydrocortisone, reference compound]: the “TEER (intestinal barrier strength)” value in data set [1] is “help maintain primary intestinal cell barrier function”.

Values taken from US20250123273A1, “SYSTEM TO CALCULATE HUMAN ORAL BIOAVAILABILITY” (CN Bio Innovations Limited, priority 2023, published 2025).
